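In this assay, cells in 96-well plates receive the compound at five concentrations for 48 hours. Endpoints are linearly interpolated between the surrounding concentrations. TGI is the concentration that stops growth completely.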
Tests used:
Assay in all cases: growth of human tumour cells (NCI), 48 h
SR leukemia = system: SR leukemia
ACHN renal = system: ACHN renal
HOP-18 NSCLC = system: HOP-18 NSCLC
SK-MEL-5 melanoma = system: SK-MEL-5 melanoma
LOX IMVI melanoma = system: LOX IMVI melanoma
HOP-92 NSCLC = system: HOP-92 NSCLC
KM20L2 colon = system: KM20L2 colon
DMS 273 small cell lung = system: DMS 273 small cell lung
NCI-H460 lung = system: NCI-H460 lung
OVCAR-8 ovarian = system: OVCAR-8 ovarian
DLD-1 colon = system: DLD-1 colon
EKVX NSCLC = system: EKVX NSCLC
SN12C renal = system: SN12C renal
M19-MEL melanoma = system: M19-MEL melanoma
HOP-62 NSCLC = system: HOP-62 NSCLC
IGROV1 ovarian = system: IGROV1 ovarian
NCI-H23 lung = system: NCI-H23 lung
LXFL 529 NSCLC = system: LXFL 529 NSCLC
786-0 renal = system: 786-0 renal
CAKI-1 renal = system: CAKI-1 renal
HCC-2998 colon = system: HCC-2998 colon
SNB-78 CNS = system: SNB-78 CNS
KM12 colon = system: KM12 colon
OVCAR-3 ovarian = system: OVCAR-3 ovarian
DMS 114 small cell lung = system: DMS 114 small cell lung
SF-268 CNS = system: SF-268 CNS
SK-OV-3 ovarian = system: SK-OV-3 ovarian
RXF 393 renal = system: RXF 393 renal
UACC-62 melanoma = system: UACC-62 melanoma
HCT-15 colon = system: HCT-15 colon
RPMI-8226 leukemia = system: RPMI-8226 leukemia
SNB-75 CNS = system: SNB-75 CNS
NCI-H226 lung = system: NCI-H226 lung
A549 NSCLC = system: A549 NSCLC
COLO 205 colon = system: COLO 205 colon
OVCAR-5 ovarian = system: OVCAR-5 ovarian
U251 CNS = system: U251 CNS
MALME-3M melanoma = system: MALME-3M melanoma
SF-539 CNS = system: SF-539 CNS
HT29 colon = system: HT29 colon
M14 melanoma = system: M14 melanoma
UO-31 renal = system: UO-31 renal
RXF-631 renal = system: RXF-631 renal
MOLT-4 leukemia = system: MOLT-4 leukemia
HCT-116 colon = system: HCT-116 colon
SNB-19 CNS = system: SNB-19 CNS
OVCAR-4 ovarian = system: OVCAR-4 ovarian
SW-620 colon = system: SW-620 colon
SF-295 CNS = system: SF-295 CNS
SK-MEL-28 melanoma = system: SK-MEL-28 melanoma
HL-60(TB) leukemia = system: HL-60(TB) leukemia
K-562 leukemia = system: K-562 leukemia
A498 renal = system: A498 renal
SK-MEL-2 melanoma = system: SK-MEL-2 melanoma
TK-10 renal = system: TK-10 renal
UACC-257 melanoma = system: UACC-257 melanoma
NCI-H522 lung = system: NCI-H522 lung

For `Cn1cnc([N+](=O)[O-])c1Sc1nc2ccccc2s1`, which TGI (SR leukemia) is on record?
The TGI was 13.2 µM.

What about the TGI (ACHN renal) of the same compound?
The TGI was 28.8 µM.

What about the TGI (HOP-18 NSCLC) of the same compound?
Its TGI is 0.902 µM.

And the TGI (SK-MEL-5 melanoma)?
Its TGI is 27.1 µM.

And the TGI (LOX IMVI melanoma)?
The TGI was 31 µM.

What about the TGI (HOP-92 NSCLC) of the same compound?
The TGI was 14.3 µM.

What about the TGI (KM20L2 colon) of the same compound?
The TGI was 23.5 µM.

What about the TGI (DMS 273 small cell lung) of the same compound?
Its TGI is 2.71 µM.

What about the TGI (NCI-H460 lung) of the same compound?
Its TGI is 24.3 µM.

What about the TGI (OVCAR-8 ovarian) of the same compound?
Its TGI is 17.6 µM.

And the TGI (DLD-1 colon)?
Its TGI is 18.1 µM.

And the TGI (EKVX NSCLC)?
Its TGI is 17.8 µM.

And the TGI (SN12C renal)?
The TGI was 17.6 µM.

What about the TGI (M19-MEL melanoma) of the same compound?
The TGI was 24.3 µM.

What about the TGI (HOP-62 NSCLC) of the same compound?
Its TGI is 86.1 µM.

What about the TGI (IGROV1 ovarian) of the same compound?
Its TGI is 25.2 µM.

And the TGI (NCI-H23 lung)?
The TGI was 23.9 µM.

What about the TGI (LXFL 529 NSCLC) of the same compound?
Its TGI is 24.7 µM.

What about the TGI (786-0 renal) of the same compound?
The TGI was 24.7 µM.

What about the TGI (CAKI-1 renal) of the same compound?
The TGI was 6.9 µM.

And the TGI (HCC-2998 colon)?
Its TGI is 22 µM.

What about the TGI (SNB-78 CNS) of the same compound?
Its TGI is 33 µM.

What about the TGI (KM12 colon) of the same compound?
Its TGI is 29.3 µM.

And the TGI (OVCAR-3 ovarian)?
Its TGI is 14.5 µM.

And the TGI (DMS 114 small cell lung)?
The TGI was 14.9 µM.

What about the TGI (SF-268 CNS) of the same compound?
Its TGI is 20.7 µM.

And the TGI (SK-OV-3 ovarian)?
The TGI was 29.5 µM.

What about the TGI (RXF 393 renal) of the same compound?
Its TGI is 8.22 µM.

What about the TGI (UACC-62 melanoma) of the same compound?
Its TGI is 25.7 µM.

What about the TGI (HCT-15 colon) of the same compound?
Its TGI is 14.6 µM.

What about the TGI (RPMI-8226 leukemia) of the same compound?
The TGI was 43.1 µM.

And the TGI (SNB-75 CNS)?
Its TGI is 29.3 µM.

And the TGI (NCI-H226 lung)?
The TGI was 22.1 µM.

What about the TGI (A549 NSCLC) of the same compound?
Its TGI is 22.8 µM.

What about the TGI (COLO 205 colon) of the same compound?
The TGI was 14.5 µM.

What about the TGI (OVCAR-5 ovarian) of the same compound?
The TGI was 27.9 µM.

What about the TGI (U251 CNS) of the same compound?
Its TGI is 24.4 µM.

And the TGI (MALME-3M melanoma)?
The TGI was 13.2 µM.

And the TGI (SF-539 CNS)?
The TGI was 25.1 µM.

What about the TGI (HT29 colon) of the same compound?
The TGI was 28.5 µM.

And the TGI (M14 melanoma)?
Its TGI is 29 µM.

What about the TGI (UO-31 renal) of the same compound?
Its TGI is 21.5 µM.

What about the TGI (RXF-631 renal) of the same compound?
The TGI was 16.9 µM.

And the TGI (MOLT-4 leukemia)?
Its TGI is 4.91 µM.

And the TGI (HCT-116 colon)?
The TGI was 18.7 µM.

And the TGI (SNB-19 CNS)?
The TGI was 29.4 µM.

What about the TGI (OVCAR-4 ovarian) of the same compound?
Its TGI is 13.1 µM.

And the TGI (SW-620 colon)?
Its TGI is 15.1 µM.

What about the TGI (SF-295 CNS) of the same compound?
The TGI was 44.6 µM.

What about the TGI (SK-MEL-28 melanoma) of the same compound?
Its TGI is 21.1 µM.

Which TGI (HL-60(TB) leukemia) does the source give for `CSc1nc(NC2OC(COC(C)=O)C(OC(C)=O)C(OC(C)=O)C2OC(C)=O)c(N=CC=Nc2c(NC3OC(COC(C)=O)C(OC(C)=O)C(OC(C)=O)C3OC(C)=O)nc(SC)[nH]c2=O)c(=O)[nH]1` (centres undefined) here?
The TGI was > 100 µM.

What about the TGI (SR leukemia) of the same compound?
Its TGI is > 100 µM.

What about the TGI (ACHN renal) of the same compound?
Its TGI is > 100 µM.

And the TGI (HOP-18 NSCLC)?
Its TGI is > 100 µM.

And the TGI (K-562 leukemia)?
Its TGI is > 100 µM.

What about the TGI (SK-MEL-5 melanoma) of the same compound?
Its TGI is > 100 µM.

What about the TGI (LOX IMVI melanoma) of the same compound?
The TGI was > 100 µM.

And the TGI (HOP-92 NSCLC)?
Its TGI is > 100 µM.

And the TGI (KM20L2 colon)?
Its TGI is > 100 µM.

And the TGI (DMS 273 small cell lung)?
Its TGI is > 100 µM.

And the TGI (NCI-H460 lung)?
The TGI was > 100 µM.

What about the TGI (OVCAR-8 ovarian) of the same compound?
The TGI was > 100 µM.

What about the TGI (DLD-1 colon) of the same compound?
Its TGI is > 100 µM.

What about the TGI (A498 renal) of the same compound?
The TGI was > 100 µM.

What about the TGI (EKVX NSCLC) of the same compound?
Its TGI is > 100 µM.

What about the TGI (SK-MEL-2 melanoma) of the same compound?
Its TGI is > 100 µM.

What about the TGI (SN12C renal) of the same compound?
Its TGI is > 100 µM.

And the TGI (M19-MEL melanoma)?
Its TGI is > 100 µM.

What about the TGI (HOP-62 NSCLC) of the same compound?
Its TGI is > 100 µM.

And the TGI (IGROV1 ovarian)?
The TGI was > 100 µM.

What about the TGI (NCI-H23 lung) of the same compound?
The TGI was > 100 µM.

What about the TGI (TK-10 renal) of the same compound?
Its TGI is > 100 µM.

What about the TGI (LXFL 529 NSCLC) of the same compound?
The TGI was > 100 µM.

What about the TGI (786-0 renal) of the same compound?
The TGI was > 100 µM.

What about the TGI (UACC-257 melanoma) of the same compound?
The TGI was > 100 µM.

And the TGI (HCC-2998 colon)?
Its TGI is > 100 µM.

And the TGI (SNB-78 CNS)?
The TGI was > 100 µM.

What about the TGI (NCI-H522 lung) of the same compound?
The TGI was > 100 µM.

What about the TGI (KM12 colon) of the same compound?
Its TGI is > 100 µM.

And the TGI (OVCAR-3 ovarian)?
The TGI was > 100 µM.

What about the TGI (DMS 114 small cell lung) of the same compound?
The TGI was > 100 µM.

And the TGI (SF-268 CNS)?
Its TGI is > 100 µM.

And the TGI (SK-OV-3 ovarian)?
Its TGI is > 100 µM.

What about the TGI (RXF 393 renal) of the same compound?
Its TGI is > 100 µM.

What about the TGI (UACC-62 melanoma) of the same compound?
The TGI was > 100 µM.

What about the TGI (HCT-15 colon) of the same compound?
The TGI was > 100 µM.

And the TGI (RPMI-8226 leukemia)?
Its TGI is > 100 µM.

What about the TGI (SNB-75 CNS) of the same compound?
The TGI was > 100 µM.

And the TGI (A549 NSCLC)?
Its TGI is > 100 µM.

What about the TGI (COLO 205 colon) of the same compound?
Its TGI is > 100 µM.

And the TGI (OVCAR-5 ovarian)?
Its TGI is > 100 µM.

And the TGI (U251 CNS)?
The TGI was > 100 µM.

And the TGI (MALME-3M melanoma)?
The TGI was > 100 µM.

And the TGI (SF-539 CNS)?
Its TGI is > 100 µM.

What about the TGI (HT29 colon) of the same compound?
Its TGI is > 100 µM.

And the TGI (M14 melanoma)?
Its TGI is > 100 µM.

What about the TGI (UO-31 renal) of the same compound?
Its TGI is > 100 µM.

What about the TGI (RXF-631 renal) of the same compound?
Its TGI is > 100 µM.

And the TGI (HCT-116 colon)?
Its TGI is > 100 µM.

And the TGI (SNB-19 CNS)?
The TGI was > 100 µM.

And the TGI (OVCAR-4 ovarian)?
The TGI was > 100 µM.

What about the TGI (SW-620 colon) of the same compound?
Its TGI is > 100 µM.

What about the TGI (SF-295 CNS) of the same compound?
The TGI was > 100 µM.

What about the TGI (SK-MEL-28 melanoma) of the same compound?
The TGI was > 100 µM.

Reference: PubChem BioAssay (NCI)
